Data taken from patent US12195482B1 (Arcus Biosciences, Inc., priority 2022, dated 2025).

Legend:
[1] = molecular target: T1, p-AXL (Homo sapiens, UniProt P30530); experiment: Axl phosphorylation inhibition ELISA in HEK293T cells transfected with NanoLuc-tagged AXL; type: cell-based; details: 1 h compound incubation, media (OptiMEM)
T1 construct: expressed in transfected cells; host or cells: HEK293T
T1 sequence (P30530 26-894): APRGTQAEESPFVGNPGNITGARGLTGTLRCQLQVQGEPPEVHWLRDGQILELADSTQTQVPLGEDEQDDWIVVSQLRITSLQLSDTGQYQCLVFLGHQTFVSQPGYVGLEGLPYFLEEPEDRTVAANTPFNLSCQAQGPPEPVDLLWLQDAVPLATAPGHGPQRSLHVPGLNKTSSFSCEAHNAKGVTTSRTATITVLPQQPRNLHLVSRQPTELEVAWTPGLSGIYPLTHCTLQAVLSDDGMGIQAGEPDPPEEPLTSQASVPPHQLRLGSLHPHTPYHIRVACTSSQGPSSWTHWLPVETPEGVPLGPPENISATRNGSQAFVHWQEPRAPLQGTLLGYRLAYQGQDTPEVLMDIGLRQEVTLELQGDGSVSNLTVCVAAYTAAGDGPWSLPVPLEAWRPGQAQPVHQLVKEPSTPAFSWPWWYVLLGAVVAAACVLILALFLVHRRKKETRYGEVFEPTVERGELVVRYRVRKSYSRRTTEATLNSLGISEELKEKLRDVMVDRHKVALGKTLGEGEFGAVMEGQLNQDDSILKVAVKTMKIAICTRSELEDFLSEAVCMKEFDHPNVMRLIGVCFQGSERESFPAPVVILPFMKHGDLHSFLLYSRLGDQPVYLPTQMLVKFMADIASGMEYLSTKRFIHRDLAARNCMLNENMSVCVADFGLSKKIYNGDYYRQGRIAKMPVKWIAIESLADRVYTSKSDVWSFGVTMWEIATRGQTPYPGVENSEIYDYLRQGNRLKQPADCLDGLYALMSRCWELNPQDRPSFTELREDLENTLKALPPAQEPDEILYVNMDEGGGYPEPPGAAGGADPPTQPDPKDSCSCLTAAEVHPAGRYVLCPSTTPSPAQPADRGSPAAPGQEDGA
Method in brief: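 Phospho-AXL detected by luminescence of NanoLuc tag after capture of cell lysate on biotinylated anti-phospho-tyrosine mAb plates (2 h). Lysates came from transiently transfected HEK293T cells treated 1 h at 37° C with serial 2-fold dilutions (22 points). IC50 by standard 4-parameter logistic fitting.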

[2] = molecular target: T2, Axl (Homo sapiens, UniProt P30530); experiment: Biochemical potency, HTRF KinEASE-TK kinase assay; set-up: purchased Invitrogen; details: 5 nM AXL, 700 μM ATP
T2 sequence (P30530 26-894): T1 sequence (P30530 26-894)
Method in brief: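 Enzyme (AXL 5 nM; TYRO3 or MER 1 nM final) was preincubated with compound for 1 h at RT, then reacted for 2 h at RT with 800 nM biotinylated TK substrate and 700 µM ATP in HEPES pH 7.4, MgCl2, DTT, BSA, 1% DMSO. Percent activity came from the HTRF 665/620 ratio.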

Row | SMILES | IC50 [1] [nM] | IC50 [2] [nM]
1 | Cc1cc(C)c(-c2ccc(-c3c[nH]c4ncc(-c5ccc6c(c5)CC[C@@H](N5C7COCC5C7)CC6)cc34)cc2)nn1 [Example 80, 6-[(7S)-2-{3-[4-(4,6-Dimethylpyridazin-3-yl)phenyl]-1H-pyrrolo[2,3-b]pyridin-5-yl}-6,7,8,9-tetrahydro-5H-benzo[7]annulen-7-yl]-3-oxa-6-azabicyclo[3.1.1]heptane] | < 100 | < 100
2 | Cc1nccnc1-c1ccc(-c2c[nH]c3ncc(-c4ccc5c(c4)CC[C@@H](N4C6COCC4C6)CC5)cc23)cc1 [Example 48, 6-[(7S)-2-{3-[4-(3-Methylpyrazin-2-yl)phenyl]-1H-pyrrolo[2,3-b]pyridin-5-yl}-6,7,8,9-tetrahydro-5H-benzo[7]annulen-7-yl]-3-oxa-6-azabicyclo[3.1.1]heptane] | < 100 | < 100
3 | Clc1cc(-c2c[nH]c3ncc(-c4ccc5c(c4)CC[C@@H](N4C6COCC4C6)CC5)cc23)ccc1-c1ccccn1 [Example 44, 6-[(7S)-2-{3-[3-Chloro-4-(pyridin-2-yl)phenyl]-1H-pyrrolo[2,3-b]pyridin-5-yl}-6,7,8,9-tetrahydro-5H-benzo[7]annulen-7-yl]-3-oxa-6-azabicyclo[3.1.1]heptane] | 100 to 1000 | < 100
